In PMC9151520 (Archives of Toxicology, 2022):
Where two headings read alike, the source gives them in different places.

Experiments:
[1] = system: p53 signaling (p53RE-bla HCT-116 cells); assay: cells; assay type: cell-based
[2] = system: p53 signaling (p53RE-bla HCT-116 cells)
[3] = system: p53 signaling (p53RE-bla HCT-116 cells); remark: listed apart in the source
[4] = Homo sapiens, HCT-116, read-out: p53 activation efficacy, primary screening
[5] = Homo sapiens, HCT-116, read-out: p53 activation EC50, cherry pick confirmation
[6] = Homo sapiens, HCT-116, read-out: p53 activation EC50, primary screening
[7] = Homo sapiens, HCT-116, read-out: p53 activation efficacy, cherry pick confirmation
[8] = Homo sapiens, HCT-116, read-out: EC50, p53 activation, cherry pick confirmation
[9] = Homo sapiens, HCT-116, read-out: EC50, p53 activation, primary screening
[10] = Homo sapiens, HCT-116, read-out: Efficacy, p53 activation, cherry pick confirmation
[11] = Homo sapiens, HCT-116, read-out: Efficacy, p53 activation, primary screening
[12] = read-out: EC50, p53 activation, primary screening

Compound	p53 activation efficacy, cherry pick confirmation [1]	p53 activation EC50, cherry pick confirmation [2]	p53 activation efficacy, cherry pick confirmation [2]	p53 activation EC50, cherry pick confirmation [3]	p53 activation efficacy, cherry pick confirmation [3]	Viability EC50, cherry pick confirmation (p53RE-bla HCT-116 cells)	Viability EC50, primary screening (p53RE-bla HCT-116 cells)	Viability efficacy, cherry pick confirmation (p53RE-bla HCT-116 cells)	Viability efficacy, primary screening (p53RE-bla HCT-116 cells)	Emax [1, 4] [%]	p53 activation EC50, primary screening [2]	p53 activation efficacy, primary screening [2]	p53 activation EC50, primary screening [3]	p53 activation efficacy, primary screening [3]	EC50 [1, 5] [µM]	EC50 [1, 6] [µM]	Emax [1, 7] [%]	EC50, p53 activation, cherry pick confirmation [2]	EC50, p53 activation, primary screening [2]	Efficacy, p53 activation, cherry pick confirmation [2]	other results
O=C(c1ccccc1)c1ccccc1 [Benzophenone]	inactive	inactive	inactive	inactive	inactive	inactive	inactive	inactive	inactive	–	–	–	–	–	–	–	–	–	–	–	p53 activation EC50, cherry pick confirmation [1]: inactive; p53 activation EC50, primary screening [1]: inactive; p53 activation efficacy, primary screening [1]: inactive
CC/C(=C(/CC)c1ccc(O)cc1)c1ccc(O)cc1 [Diethylstilbestrol]	inactive	inactive	inactive	inactive	inactive	inactive	inactive	inactive	–	42.5	inactive	inactive	inactive	inactive	–	–	–	–	–	–	p53 activation EC50, cherry pick confirmation [1]: inactive
S=c1[nH]cnc2nc[nH]c12 [6-Mercaptopurine]	–	inactive	inactive	inactive	inactive	inactive	inactive	inactive	inactive	80.4	inactive	inactive	inactive	inactive	9.76	7.97	41.7	–	–	–	–
CC(=O)Oc1ccc(C2(c3ccc(OC(C)=O)cc3)Oc3ccccc3NC2=O)cc1 [Bisoxatin acetate]	–	inactive	inactive	inactive	inactive	inactive	inactive	inactive	inactive	63.9	inactive	inactive	inactive	inactive	0.665	3.99	31.4	–	–	–	–
CCCCNC(=O)n1c(NC(=O)OC)nc2ccccc21 [Benomyl]	–	inactive	inactive	inactive	inactive	inactive	inactive	inactive	inactive	88.9	inactive	inactive	inactive	inactive	8.93	11.4	38.5	–	–	–	–
O=c1cc(-c2ccccc2)oc2cc(O)cc(O)c12 [Chrysin]	–	–	–	–	–	–	–	–	–	–	–	–	–	–	–	–	–	inactive	inactive	inactive	EC50 [1, 8]: 45 µM; EC50 [1, 9]: 49.5 µM; Emax [1, 10]: 43.6%; Emax [1, 11]: 38.6%; Efficacy, p53 activation, primary screening [2]: inactive; EC50, p53 activation, cherry pick confirmation [3]: inactive; EC50, p53 activation, primary screening [3]: inactive; Efficacy, p53 activation, cherry pick confirmation [3]: inactive; Efficacy, p53 activation, primary screening [3]: inactive; EC50, viability, cherry pick confirmation (p53RE-bla HCT-116 cells): inactive; EC50, viability, primary screening (p53RE-bla HCT-116 cells): inactive; Efficacy, viability, cherry pick confirmation (p53RE-bla HCT-116 cells): inactive; Efficacy, viability, primary screening (p53RE-bla HCT-116 cells): inactive
Cc1cc(C2CCCCC2)n(O)c(=O)c1 [Ciclopirox olamine]	–	–	–	–	–	–	–	–	–	–	–	–	–	–	–	–	–	inactive	inactive	inactive	EC50 [1, 8]: 26.5 µM; EC50 [1, 9]: 16.3 µM; Emax [1, 10]: 57.2%; Emax [1, 11]: 26%; Efficacy, p53 activation, primary screening [2]: inactive; EC50, p53 activation, cherry pick confirmation [3]: inactive; EC50, p53 activation, primary screening [3]: inactive; Efficacy, p53 activation, cherry pick confirmation [3]: inactive; Efficacy, p53 activation, primary screening [3]: inactive; EC50, viability, cherry pick confirmation (p53RE-bla HCT-116 cells): inactive; EC50, viability, primary screening (p53RE-bla HCT-116 cells): inactive; Efficacy, viability, cherry pick confirmation (p53RE-bla HCT-116 cells): inactive; Efficacy, viability, primary screening (p53RE-bla HCT-116 cells): inactive
Cc1ccc([N+](=O)[O-])c(C)c1 [1,3-Dimethyl-4-nitrobenzene]	inactive	inactive	inactive	inactive	inactive	inactive	inactive	inactive	inactive	–	–	–	–	–	–	–	–	–	–	–	p53 activation EC50, cherry pick confirmation [1]: inactive; p53 activation EC50, primary screening [1]: inactive; p53 activation efficacy, primary screening [1]: inactive
COC(=O)Nc1nc2ccccc2[nH]1 [Carbendazim]	–	inactive	inactive	inactive	inactive	inactive	inactive	inactive	inactive	67	inactive	inactive	inactive	inactive	11.9	10.3	62.2	–	–	–	–
CNC(=O)O/N=C/C(C)(C)SC [Aldicarb]	–	–	–	–	–	–	–	–	–	–	–	–	–	–	–	–	–	–	–	–	p53 activation EC50 [1]: inactive; p53 activation efficacy [1]: inactive; p53 activation EC50 [2]: inactive; p53 activation EC50 [3]: inactive; Viability EC50 (p53RE-bla HCT-116 cells): inactive; Viability efficacy (p53RE-bla HCT-116 cells): inactive
COc1cccc2c1cc([N+](=O)[O-])c1c(C(=O)[O-])cc3c(c12)OCO3.[Na+] [Sodium aristolochate-I]	–	–	–	–	–	–	–	–	–	–	–	–	–	–	–	–	–	inactive	inactive	inactive	EC50, p53 activation, cherry pick confirmation [1]: inactive; Efficacy, p53 activation, cherry pick confirmation [1]: inactive; Efficacy, p53 activation, primary screening [1]: 50.4333; EC50 [1, 12]: 3.65 µM; Efficacy, p53 activation, primary screening [2]: inactive; EC50, p53 activation, cherry pick confirmation [3]: inactive; EC50, p53 activation, primary screening [3]: inactive; Efficacy, p53 activation, cherry pick confirmation [3]: inactive; Efficacy, p53 activation, primary screening [3]: inactive; EC50, viability, cherry pick confirmation (p53RE-bla HCT-116 cells): inactive; EC50, viability, primary screening (p53RE-bla HCT-116 cells): inactive; Efficacy, viability, primary screening (p53RE-bla HCT-116 cells): inactive; EC50 (p53RE-bla HCT-116 cells; read-out: EC50, viability, cherry pick confirmation): 9.67 µM
PharmaGSID_48505	67.8753	inactive	inactive	inactive	inactive	inactive	inactive	inactive	inactive	–	inactive	inactive	inactive	inactive	–	–	–	–	–	–	p53 activation efficacy, primary screening [1]: 66.729; EC50 ([1]; read-out: p53 activation EC50, cherry pick confirmation): 2.82 µM; EC50 ([1]; read-out: p53 activation EC50, primary screening): 0.396 µM
O=C(c1ccc(O)cc1)c1ccc(O)cc1O [2,4,4'-Trihydroxybenzophenone]	–	–	–	–	–	–	–	–	–	–	–	–	–	–	–	–	–	inactive	inactive	inactive	EC50, p53 activation, cherry pick confirmation [1]: inactive; Efficacy, p53 activation, cherry pick confirmation [1]: inactive; Efficacy, p53 activation, primary screening [1]: 51.9983; EC50 [1, 12]: 46.5 µM; Efficacy, p53 activation, primary screening [2]: inactive; EC50, p53 activation, cherry pick confirmation [3]: inactive; EC50, p53 activation, primary screening [3]: inactive; Efficacy, p53 activation, cherry pick confirmation [3]: inactive; Efficacy, p53 activation, primary screening [3]: inactive; EC50, viability, cherry pick confirmation (p53RE-bla HCT-116 cells): inactive; EC50, viability, primary screening (p53RE-bla HCT-116 cells): inactive; Efficacy, viability, cherry pick confirmation (p53RE-bla HCT-116 cells): inactive; Efficacy, viability, primary screening (p53RE-bla HCT-116 cells): inactive
